Earlier results as cited in article PMC10994420, “Development of peptides for targeting cell ablation agents concurrently to the Sertoli and Leydig cell populations of the testes: An approach to non-surgical sterilization” (PLOS ONE, 2024).
Numbered stars: 1 amine (or outer) side, 2 acyl side, 3 side chain; on linkers, the order of the positions; unused ones are H or OH. Square brackets hold non-standard residues; d marks the D form. Peptide text beside a SMILES is read from it. * marks the point of attachment. Dolaproine = CO[C@@H]([C@@H]1CCCN1)[C@@H](C)C(=O)O; Hexanoyl(6-maleimido) = O=C1C=CC(=O)N1CCCCCC(=O)*; Dil = CC[C@H](C)[C@H](NC)[C@@H](CC(=O)O)OC; PABC = O=C(OCc1ccc(N[*:1])cc1)[*:2]; X1 = C[C@@H](N*)[C@@H](O)c1ccccc1; Cit = NC(=O)NCCC[C@H](N)C(=O)O; NMeV = CN[C@H](C(=O)O)C(C)C

Assays:
[1] = maleimide form with valine-citrulline linker; ref https://www.chemsrc.com/en/cas/646502-53-6_1197872.html
Description: Among these criteria, aqueous solubility was considered an important factor, both in the context of reaction with Auristatin and for use of biocompatible solvents for in vivo delivery.

[2] = no reference given
Protocol: Four treatment groups of ten 55-day-old male Swiss male CD1 mice were injected intraperitoneally. Treatments included: (1) […] vehicle control (30% Solutol (Kolliphor)/PBS), (2) 300 μL/30 g 14.5 mM FSH2Menadione, (3) 100 μL/30g 425 μM LH2Aur, or (4) 300 μL/30 g 14.5 mM FSH2Menadione plus 100 μL/30g 425 μM LH2Aur (consecutive injections, 16 h apart). The dose of 1 mg/kg of conjugated Auristatin was determined with reference to the work by Doronina et al., who determined the maximum tolerated dose (MTD) of conjugated Auristatin for mice is 1.1 mg/kg. Solubility of the FSH2Menadione was ...

For CC[C@H](C)[C@@H]([C@@H](CC(=O)N1CCC[C@H]1[C@H](OC)[C@@H](C)C(=O)N[C@H](C)[C@@H](O)c1ccccc1)OC)N(C)C(=O)[C@@H](NC(=O)[C@H](C(C)C)N(C)C(=O)OCc1ccc(NC(=O)[C@H](CCCNC(N)=O)NC(=O)[C@@H](NC(=O)CCCCCN2C(=O)C=CC2=O)C(C)C)cc1)C(C)C [Auristatin, maleimide-valine-citrulline- para-aminobenzyloxycarbonyl -monomethyl-Auristatin E] ({Hexanoyl(6-maleimido)}-V[Cit][PABC][NMeV]V[Dil][Dolaproine]-X1), the aqueous solubility [1] is given as “very poor” and the logP value [1] is given as 6.04.
In the case of CC1=CC(=O)c2ccccc2C1=O [menadione, 2-methyl-1,4-naphthoquinone], the MTD [2] is given as 830 mg/kg.
